From ChEMBL document CHEMBL2440051, “Structure-activity relationships of lanostane-type triterpenoids from Ganoderma lingzhi as α-glucosidase inhibitors” (Bioorg Med Chem Lett, 2013)

Biological target: not listed separately
Test: Inhibition of alpha-glucosidase (unknown origin) using sucrose as substrate assessed as formation of glucose after 30 mins by glucose oxidase method
Design: species or system Homo sapiens

Row | Compound | IC50
1 | CC(CC(=O)C[C@@H](C)[C@H]1C[C@H](O)[C@@]2(C)C3=C(C(=O)C[C@]12C)[C@@]1(C)CC[C@H](O)C(C)(C)[C@@H]1CC3)C(=O)O (stereo partly drawn) [GANOLUCIDIC ACID B] | > 600 µM
2 | CC(CC(=O)C[C@@H](C)[C@H]1CC(=O)[C@@]2(C)C3=C(C(=O)[C@@H](O)[C@]12C)[C@@]1(C)CC[C@H](O)C(C)(C)[C@@H]1CC3=O)C(=O)O (stereo partly drawn) [GANODERIC ACID C6] | > 600 µM
3 | CC(=O)O[C@@H]1C(=O)C2=C(C(=O)C[C@H]3C(C)(C)[C@@H](O)CC[C@]23C)[C@]2(C)C(=O)C[C@H]([C@H](C)CC(=O)CC(C)C(=O)O)[C@@]12C (stereo partly drawn) [GANODERIC ACID H] | > 600 µM
4 | C[C@H](CC(=O)C[C@@H](C)[C@H]1CC(=O)[C@@]2(C)C3=C(C(=O)C[C@]12C)[C@@]1(C)CCC(=O)C(C)(C)[C@@H]1C[C@@H]3O)C(=O)O [GANODERIC ACID C1] | > 600 µM
5 | CC(CC(=O)C[C@@H](C)[C@H]1C[C@H](O)[C@@]2(C)C3=C(C(=O)C[C@]12C)[C@@]1(C)CCC(=O)C(C)(C)[C@@H]1CC3=O)C(=O)O (stereo partly drawn) [GANODERIC ACID J] | > 600 µM
6 | COC(=O)C(C)CC(=O)/C=C(\C)[C@H]1C[C@H](O)[C@@]2(C)C3=C(C(=O)C[C@]12C)[C@@]1(C)CCC(=O)C(C)(C)[C@@H]1C[C@@H]3O (stereo partly drawn) [METHYL GANODERENATE A] | > 600 µM
7 | C[C@H](CC[C@H](O)[C@](C)(O)CO)[C@H]1CC[C@@]2(C)C3=CC[C@H]4C(C)(C)C(=O)CC[C@]4(C)C3=CC[C@]12C [GANODERMANONTRIOL] | 540 µM
8 | COC(=O)C(C)CC(=O)C[C@@H](C)[C@H]1CC(=O)[C@@]2(C)C3=C([C@@H](O)C[C@]12C)[C@@]1(C)CCC(=O)C(C)(C)[C@@H]1C[C@@H]3O (stereo partly drawn) | > 600 µM
9 | C[C@H](CC(=O)C[C@@H](C)[C@H]1C[C@H](O)[C@@]2(C)C3=C(C(=O)C[C@]12C)[C@@]1(C)CC[C@H](O)C(C)(C)[C@@H]1C[C@@H]3O)C(=O)O [GANODERIC ACID C2] | > 600 µM
10 | C[C@H](CCC=C(CO)CO)[C@H]1CC[C@@]2(C)C3=CC[C@H]4C(C)(C)C(=O)CC[C@]4(C)C3=CC[C@]12C [GANODERIOL F] | 208 µM
11 | CC(CC(=O)C[C@@H](C)[C@H]1CC(=O)[C@@]2(C)C3=C(C(=O)[C@@H](O)[C@]12C)[C@@]1(C)CC[C@H](O)C(C)(C)[C@@H]1C[C@@H]3O)C(=O)O (stereo partly drawn) [GANODERIC ACID G] | > 600 µM
12 | C[C@H](CC(=O)C[C@@H](C)[C@H]1C[C@H](O)[C@@]2(C)C3=C(C(=O)C[C@]12C)[C@@]1(C)CCC(=O)C(C)(C)[C@@H]1C[C@@H]3O)C(=O)O [GANODERIC ACID A] | 528 µM
13 | C[C@H]1O[C@H](O[C@H]2[C@H](O)[C@@H](O)[C@@H](O[C@H]3[C@H](O)[C@@H](O)C(O)O[C@@H]3CO)O[C@@H]2CO)[C@H](O)[C@@H](O)[C@@H]1N[C@H]1C=C(CO)[C@@H](O)[C@H](O)[C@H]1O (stereo partly drawn) [ACARBOSE] | 522 µM
14 | COC(=O)C(C)CC(=O)C[C@@H](C)[C@H]1C[C@H](O)[C@@]2(C)C3=C(C(=O)C[C@]12C)[C@@]1(C)CCC(=O)C(C)(C)[C@@H]1C[C@@H]3O (stereo partly drawn) [METHYL GANODERATE A] | > 600 µM
15 | CC(CC(=O)C[C@@H](C)[C@H]1CC(=O)[C@@]2(C)C3=C(C(=O)C[C@]12C)[C@@]1(C)CC[C@H](O)C(C)(C)[C@@H]1C[C@@H]3O)C(=O)O (stereo partly drawn) [GANODERIC ACID B] | 464 µM
16 | CC(=O)O[C@@H]1C(=O)C2=C([C@@H](O)C[C@H]3C(C)(C)[C@@H](O)CC[C@]23C)[C@]2(C)C(=O)C[C@H]([C@H](C)CC(=O)CC(C)C(=O)O)[C@@]12C (stereo partly drawn) [GANODERIC ACID K] | > 600 µM
17 | CC(CC(=O)C[C@@H](C)[C@H]1CC(=O)[C@@]2(C)C3=C(C(=O)C[C@]12C)[C@@]1(C)CCC(=O)C(C)(C)[C@@H]1C[C@@H]3O)C(=O)O (stereo partly drawn) [GANODERIC ACID D] | > 600 µM
18 | C/C(=C\CC[C@@H](C)[C@H]1CC[C@@]2(C)C3=CC[C@H]4C(C)(C)[C@@H](O)CC[C@]4(C)C3=CC[C@]12C)CO [GANODEROL B] | 110 µM
19 | CC(CC(=O)C[C@@H](C)[C@H]1CC(=O)[C@@]2(C)C3=C([C@@H](O)C[C@]12C)[C@@]1(C)CCC(=O)C(C)(C)[C@@H]1C[C@@H]3O)C(=O)O (stereo partly drawn) [GANODERIC ACID DF] | 219 µM
20 | C/C(=C\C(=O)CC(C)C(=O)O)[C@H]1C[C@H](O)[C@@]2(C)C3=C(C(=O)C[C@]12C)[C@@]1(C)CCC(=O)C(C)(C)[C@@H]1C[C@@H]3O (stereo partly drawn) [GANODERENIC ACID A] | 445 µM

Species on record: Homo sapiens
Test: Ratio of acarbose IC50 to compound IC50 for alpha-glucosidase (unknown origin)

Row | Compound | Ratio IC50
21 | C[C@H](CCC=C(CO)CO)[C@H]1CC[C@@]2(C)C3=CC[C@H]4C(C)(C)C(=O)CC[C@]4(C)C3=CC[C@]12C [GANODERIOL F] | 3
22 | C/C(=C\CC[C@@H](C)[C@H]1CC[C@@]2(C)C3=CC[C@H]4C(C)(C)[C@@H](O)CC[C@]4(C)C3=CC[C@]12C)CO [GANODEROL B] | 5
23 | CC(CC(=O)C[C@@H](C)[C@H]1CC(=O)[C@@]2(C)C3=C([C@@H](O)C[C@]12C)[C@@]1(C)CCC(=O)C(C)(C)[C@@H]1C[C@@H]3O)C(=O)O (stereo partly drawn) [GANODERIC ACID DF] | 2.5
